In PMC7617869, “Molecular glues that inhibit deubiquitylase activity and inflammatory signaling” (Nature Structural & Molecular Biology, 2025):
Where “and” joins values, the source holds several entries; their conditions need not be identical. Equal entries are not always repeated. Values belong to the molecule of their own block, whether it stands above or below them.

Assays:
[1] = biological target: T1, panel of 48 purified DUBs (Homo sapiens, UniProt Q9H3M9); test: DUB selectivity profiling (DUBprofiler, ubiquitin–rhodamine(110)–glycine); assay type: biochemical; details: DUB Ataxin3L; screening concentration 5 μM; 5 µM
T1 construct: purchased Ubiquigent (DUBprofiler service)
T1 sequence (Q9H3M9 whole entry): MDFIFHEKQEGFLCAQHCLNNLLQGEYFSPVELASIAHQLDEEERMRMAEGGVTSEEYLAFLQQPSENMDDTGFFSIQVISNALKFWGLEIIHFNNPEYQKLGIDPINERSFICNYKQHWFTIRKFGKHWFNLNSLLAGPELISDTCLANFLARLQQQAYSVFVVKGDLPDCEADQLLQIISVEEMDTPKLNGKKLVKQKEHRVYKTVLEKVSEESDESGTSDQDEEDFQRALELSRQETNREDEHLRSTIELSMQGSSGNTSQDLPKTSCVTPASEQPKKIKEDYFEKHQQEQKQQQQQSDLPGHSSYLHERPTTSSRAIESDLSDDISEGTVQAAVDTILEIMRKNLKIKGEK
Method: (§1) Biochemical selectivity profiling (DUBprofiler) was performed by Ubiquigent with a panel of 48 purified DUBs and ubiquitin–rhodamine(110)–glycine as a fluorescent substrate.

[2] = biological target: T2, panel of 48 purified DUBs (Homo sapiens, UniProt Q5VVQ6); test: as above; assay type: biochemical; details: DUB OTU1; screening concentration 5 μM
T2 construct: purchased Ubiquigent (DUBprofiler service)
Method: as §1

[3] = biological target: T3, panel of 48 purified DUBs (Homo sapiens, UniProt Q9UK80); test: as above; assay type: biochemical; details: DUB USP21; screening concentration 5 μM
T3 construct: purchased Ubiquigent (DUBprofiler service)
Method: as §1

[4] = biological target: T4, panel of 48 purified DUBs (Homo sapiens, UniProt P54578); test: as above; assay type: biochemical; details: DUB USP14; screening concentration 5 μM; 5 µM
T4 construct: purchased Ubiquigent (DUBprofiler service)
T4 sequence (P54578 whole entry): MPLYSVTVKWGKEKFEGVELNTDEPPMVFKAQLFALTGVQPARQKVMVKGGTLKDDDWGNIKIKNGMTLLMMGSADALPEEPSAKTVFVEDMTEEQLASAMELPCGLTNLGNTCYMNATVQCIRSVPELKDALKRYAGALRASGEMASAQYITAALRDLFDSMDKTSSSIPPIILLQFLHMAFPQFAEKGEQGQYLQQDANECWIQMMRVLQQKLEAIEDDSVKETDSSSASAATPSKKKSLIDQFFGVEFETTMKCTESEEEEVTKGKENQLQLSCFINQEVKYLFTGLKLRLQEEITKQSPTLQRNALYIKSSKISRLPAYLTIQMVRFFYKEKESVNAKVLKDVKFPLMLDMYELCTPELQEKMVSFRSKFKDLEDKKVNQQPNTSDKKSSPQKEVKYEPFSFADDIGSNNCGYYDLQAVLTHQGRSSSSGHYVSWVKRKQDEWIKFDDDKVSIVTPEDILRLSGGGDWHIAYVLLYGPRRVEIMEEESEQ
Method: as §1

[5] = biological target: T5, panel of 48 purified DUBs (Homo sapiens, UniProt Q70EL2); test: as above; assay type: biochemical; details: DUB USP45; screening concentration 5 μM; 5 µM
T5 construct: purchased Ubiquigent (DUBprofiler service)
T5 sequence (Q70EL2 whole entry): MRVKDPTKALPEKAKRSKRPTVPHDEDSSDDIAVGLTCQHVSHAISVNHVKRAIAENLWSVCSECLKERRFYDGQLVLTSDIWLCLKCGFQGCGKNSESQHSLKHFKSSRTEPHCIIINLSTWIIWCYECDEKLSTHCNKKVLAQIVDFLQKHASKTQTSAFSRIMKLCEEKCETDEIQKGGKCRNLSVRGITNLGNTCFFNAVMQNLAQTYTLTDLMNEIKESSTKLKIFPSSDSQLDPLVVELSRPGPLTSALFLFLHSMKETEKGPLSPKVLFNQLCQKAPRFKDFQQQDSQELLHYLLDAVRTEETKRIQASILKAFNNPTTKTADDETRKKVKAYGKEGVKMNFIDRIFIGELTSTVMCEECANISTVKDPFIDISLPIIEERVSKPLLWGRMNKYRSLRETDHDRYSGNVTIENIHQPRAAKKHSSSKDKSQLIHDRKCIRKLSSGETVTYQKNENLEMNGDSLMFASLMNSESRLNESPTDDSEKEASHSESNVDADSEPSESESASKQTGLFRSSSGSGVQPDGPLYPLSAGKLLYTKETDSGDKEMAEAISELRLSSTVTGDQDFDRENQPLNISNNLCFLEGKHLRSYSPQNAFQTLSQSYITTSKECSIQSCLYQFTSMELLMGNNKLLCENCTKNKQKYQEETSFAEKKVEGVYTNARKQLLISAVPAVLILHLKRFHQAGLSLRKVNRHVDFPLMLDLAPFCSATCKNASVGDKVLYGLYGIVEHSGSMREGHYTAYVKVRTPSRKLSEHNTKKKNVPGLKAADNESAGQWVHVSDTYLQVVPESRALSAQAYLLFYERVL
Method: as §1

[6] = biological target: T6, panel of 48 purified DUBs (Homo sapiens, UniProt Q9NQC7); test: as above; assay type: biochemical; details: DUB CYLD; screening concentration 5 μM; 5 µM
T6 construct: purchased Ubiquigent (DUBprofiler service)
T6 sequence (Q9NQC7 whole entry): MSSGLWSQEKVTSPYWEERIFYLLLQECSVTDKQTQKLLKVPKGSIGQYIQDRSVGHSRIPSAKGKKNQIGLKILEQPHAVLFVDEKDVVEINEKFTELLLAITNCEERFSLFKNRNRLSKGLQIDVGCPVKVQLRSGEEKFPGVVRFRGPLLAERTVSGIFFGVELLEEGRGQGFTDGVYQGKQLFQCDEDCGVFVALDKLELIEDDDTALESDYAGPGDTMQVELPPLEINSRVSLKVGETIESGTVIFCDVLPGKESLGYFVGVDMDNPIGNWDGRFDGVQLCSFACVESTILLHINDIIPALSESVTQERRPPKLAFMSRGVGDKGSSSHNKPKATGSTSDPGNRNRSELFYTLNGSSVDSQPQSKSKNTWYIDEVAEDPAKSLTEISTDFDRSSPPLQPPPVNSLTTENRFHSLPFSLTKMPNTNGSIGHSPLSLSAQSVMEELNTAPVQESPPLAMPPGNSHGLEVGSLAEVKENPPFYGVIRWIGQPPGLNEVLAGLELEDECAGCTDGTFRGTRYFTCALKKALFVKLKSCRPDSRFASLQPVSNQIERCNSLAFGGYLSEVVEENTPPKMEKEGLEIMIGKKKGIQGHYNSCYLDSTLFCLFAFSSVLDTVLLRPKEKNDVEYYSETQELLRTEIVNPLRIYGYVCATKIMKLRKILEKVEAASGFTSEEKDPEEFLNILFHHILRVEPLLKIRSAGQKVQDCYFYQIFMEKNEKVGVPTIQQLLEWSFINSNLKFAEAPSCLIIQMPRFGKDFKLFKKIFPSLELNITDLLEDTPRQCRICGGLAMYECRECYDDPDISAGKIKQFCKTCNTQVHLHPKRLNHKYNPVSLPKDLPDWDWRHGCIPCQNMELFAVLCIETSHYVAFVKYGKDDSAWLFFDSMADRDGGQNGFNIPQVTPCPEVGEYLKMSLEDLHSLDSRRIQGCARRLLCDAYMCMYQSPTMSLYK
Method: as §1

[7] = biological target: T7, panel of 48 purified DUBs (Homo sapiens, UniProt P51784); test: as above; assay type: biochemical; details: DUB USP11; screening concentration 5 μM; 5 µM
T7 construct: purchased Ubiquigent (DUBprofiler service)
T7 sequence (P51784 whole entry): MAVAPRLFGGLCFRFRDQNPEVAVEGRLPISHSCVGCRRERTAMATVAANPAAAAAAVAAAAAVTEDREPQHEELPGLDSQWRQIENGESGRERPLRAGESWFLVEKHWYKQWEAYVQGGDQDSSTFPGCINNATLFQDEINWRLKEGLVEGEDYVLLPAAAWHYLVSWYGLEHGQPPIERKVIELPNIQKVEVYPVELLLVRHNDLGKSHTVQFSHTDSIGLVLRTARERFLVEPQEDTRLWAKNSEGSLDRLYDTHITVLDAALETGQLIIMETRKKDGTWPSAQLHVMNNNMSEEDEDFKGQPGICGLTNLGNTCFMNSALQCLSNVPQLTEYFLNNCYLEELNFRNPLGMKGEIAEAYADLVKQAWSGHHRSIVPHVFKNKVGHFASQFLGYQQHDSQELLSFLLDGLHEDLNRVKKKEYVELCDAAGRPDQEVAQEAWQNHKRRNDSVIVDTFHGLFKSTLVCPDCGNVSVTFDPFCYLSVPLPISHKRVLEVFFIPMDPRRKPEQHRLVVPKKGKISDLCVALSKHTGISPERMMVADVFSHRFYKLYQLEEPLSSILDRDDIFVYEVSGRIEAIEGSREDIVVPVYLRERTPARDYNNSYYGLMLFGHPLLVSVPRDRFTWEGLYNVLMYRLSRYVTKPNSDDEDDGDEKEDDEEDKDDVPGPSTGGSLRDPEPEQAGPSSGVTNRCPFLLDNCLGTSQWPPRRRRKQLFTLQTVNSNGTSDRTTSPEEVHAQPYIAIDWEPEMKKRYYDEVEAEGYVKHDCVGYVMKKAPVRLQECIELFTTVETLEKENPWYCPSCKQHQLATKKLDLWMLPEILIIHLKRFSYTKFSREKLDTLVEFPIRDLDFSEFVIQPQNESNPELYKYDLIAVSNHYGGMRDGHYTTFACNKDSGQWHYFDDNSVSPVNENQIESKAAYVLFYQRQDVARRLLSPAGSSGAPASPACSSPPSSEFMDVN
Method: as §1

BRISC BRCC36 W130A = BRISC BRCC36 W130A (Homo sapiens, UniProt P46736+Q15018+Q9NXR7, W130A); test: BRISC mutant IQF assay: BRCC36 W130A; assay type: biochemical
Method: (§2) IQF assays were performed in DUB reaction buffer containing 50 mM HEPES–NaOH pH 7.0, 100 mM NaCl, 0.1 mg ml^−1 BSA, 1 mM DTT and 0.03% v/v Brij-35. […] The final concentration of BRISC WT, all BRISC mutants, HsBRISCΔLoop, MmBRISC and DrBRISCΔNΔC was 1 nM. Other enzymes were tested at the following concentrations: 5 nM ARISC (FL), 10 nM CfBRISCΔNΔC, 250 nM AMSH* (ref. [43]), 500 nM USP2 and 1 μM trypsin (Sigma, 9002-07-7). For Michaelis–Menten experiments, 1 nM BRISC with 0–1 μM IQF K63-linked diubiquitin substrate was used. Michaelis–Menten analyses and Lineweaver–Burk plots were calculated using GraphPad Prism (version 9.0).
(§3) To assess enzymatic activity, BRISC complexes were diluted to concentrations between 1 nM and 50 nM. […] Then, 20-μl enzyme reactions were carried out in 384-well black flat-bottom low-flange plates (Corning, 35373). DUB activity was measured using IQF K63-linked diubiquitin (LifeSensors, DU6303) at 50 nM. Cleaved diubiquitin was monitored by measuring fluorescence intensity (excitation, 544 nm; emission, 575 nm; dichroic mirror, 560 nm). Fluorescence intensity was measured every minute for 30 min at 30 °C. Fluorescence intensity units were plotted against time to generate a linear reaction progress curve, where the initial velocity (V0) corresponds to the gradient of the curve (typically achieved within 15 min). IC50 values were calculated using the GraphPad Prism (version 9.0) built-in dose–response equation for inhibitor concentration versus response (variable slope).

MmBRISC = biological target: T8, MmBRISC (Mus musculus, UniProt P46737+Q3TCJ1+Q8K3W0); test: MmBRISC IQF DUB activity assay; assay type: biochemical; details: read-out: Normalised V0
T8 construct: made in house; host or cells: Trichoplusia ni cells (Bac-to-Bac, pFastBac-HTB)
T8 sequence (P46737 whole entry): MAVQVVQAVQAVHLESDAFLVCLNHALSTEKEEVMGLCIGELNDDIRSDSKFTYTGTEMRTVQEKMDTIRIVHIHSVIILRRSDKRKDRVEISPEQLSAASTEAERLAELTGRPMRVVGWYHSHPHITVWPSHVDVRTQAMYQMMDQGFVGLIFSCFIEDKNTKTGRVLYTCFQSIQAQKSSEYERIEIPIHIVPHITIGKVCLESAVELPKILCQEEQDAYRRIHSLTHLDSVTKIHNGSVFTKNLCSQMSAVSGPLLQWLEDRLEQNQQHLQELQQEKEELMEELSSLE
T8 sequence (Q3TCJ1 whole entry): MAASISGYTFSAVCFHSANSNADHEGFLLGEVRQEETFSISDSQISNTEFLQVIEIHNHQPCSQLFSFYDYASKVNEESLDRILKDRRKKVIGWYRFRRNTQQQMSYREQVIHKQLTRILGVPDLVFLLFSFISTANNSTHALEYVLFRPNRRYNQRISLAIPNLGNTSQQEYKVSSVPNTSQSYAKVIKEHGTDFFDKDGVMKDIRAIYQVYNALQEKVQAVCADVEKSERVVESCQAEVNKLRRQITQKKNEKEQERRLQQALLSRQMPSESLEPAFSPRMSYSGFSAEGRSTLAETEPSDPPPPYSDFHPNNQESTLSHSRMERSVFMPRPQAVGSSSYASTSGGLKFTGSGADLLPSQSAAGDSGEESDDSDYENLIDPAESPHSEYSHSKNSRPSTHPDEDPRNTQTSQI
T8 sequence (Q8K3W0 whole entry): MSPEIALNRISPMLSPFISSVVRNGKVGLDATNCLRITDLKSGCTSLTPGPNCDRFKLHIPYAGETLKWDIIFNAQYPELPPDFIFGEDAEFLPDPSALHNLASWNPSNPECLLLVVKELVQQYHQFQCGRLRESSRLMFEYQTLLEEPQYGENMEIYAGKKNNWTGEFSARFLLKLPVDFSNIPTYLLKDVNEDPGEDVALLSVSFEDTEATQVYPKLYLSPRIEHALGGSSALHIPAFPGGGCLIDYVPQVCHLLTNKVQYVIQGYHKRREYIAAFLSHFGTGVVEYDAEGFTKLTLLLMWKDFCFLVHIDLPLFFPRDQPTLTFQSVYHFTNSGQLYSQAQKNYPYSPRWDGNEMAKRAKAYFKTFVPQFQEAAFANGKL
T8 sequence (Q3UI43 whole entry partner): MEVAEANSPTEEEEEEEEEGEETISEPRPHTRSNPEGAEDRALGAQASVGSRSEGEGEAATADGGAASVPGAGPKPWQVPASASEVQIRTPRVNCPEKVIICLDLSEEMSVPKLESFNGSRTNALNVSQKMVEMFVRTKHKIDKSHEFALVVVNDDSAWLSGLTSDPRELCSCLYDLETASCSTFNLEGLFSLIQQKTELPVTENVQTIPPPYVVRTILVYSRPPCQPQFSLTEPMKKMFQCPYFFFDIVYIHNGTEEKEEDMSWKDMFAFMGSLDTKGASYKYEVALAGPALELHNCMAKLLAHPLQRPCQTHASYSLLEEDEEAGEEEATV
Method: as §2, §3

CfBRISCΔNΔC = CfBRISCΔNΔC IQF DUB activity assay; assay type: biochemical, ant (Camponotus floridanus); details: for Normalised V0: CfBRISCΔNΔC
Method: as §2, §3

HsBRISCΔLoop = HsBRISCΔLoop (Homo sapiens, UniProt P46736+Q15018+Q9NXR7, DEL184-208); test: Mass photometry of HsBRISCΔLoop dimer formation; details: for Dimer fraction: HsBRISCΔLoop
BRISC BRCC45 R137A = BRISC BRCC45 R137A (Homo sapiens, UniProt P46736+Q15018+Q9NXR7, R137A); test: BRISC mutant IQF assay: BRCC45 R137A; assay type: biochemical
Method: as §2, §3

[8] = FX-171-C 12.5 μM, read-out: Normalised V0

- Activity (% control) [2]: 84 % control
- Activity (% control) [3]: 93 % control
- Activity (% control) [4]: 85 % control and 95 % control
- Activity (% control) [5]: 112 % control and 107 % control
- Activity (% control) [6]: 104 % control and 112 % control
- Activity (% control) [7]: 102 % control and 100 % control
Structure (SMILES): O=C(NC1CCNCC1)c1nn(C(=O)c2c(Cl)cccc2Cl)cc1NC(=O)c1c(Cl)cccc1Cl [JMS-175-2]
- Activity (% control) [1]: 98 % control and 95 % control

- IC50 (BRISC BRCC36 W130A): 23 µM
- remaining activity at 0.0035 µM (BRISC BRCC36 W130A; FX-171-C 0.0035 μM, read-out: Normalised V0): 95.2%
- remaining activity at 0.035 µM (BRISC BRCC36 W130A; FX-171-C 0.035 μM, read-out: Normalised V0): 96.5%
- remaining activity at 12.5 µM (BRISC BRCC36 W130A; [8]): 67.5%
- remaining activity at 50 µM (BRISC BRCC36 W130A; FX-171-C 50 μM, read-out: Normalised V0): 40.4%
- remaining activity at 100 µM (BRISC BRCC36 W130A; FX-171-C 100 μM, read-out: Normalised V0): 21%
- remaining activity at 0.02 µM (MmBRISC; FX-171-C 0.02 μM): 101%
- remaining activity at 0.0399999 µM (MmBRISC; FX-171-C 0.0399999 μM): 89.4%
- remaining activity at 0.0599997 µM (MmBRISC; FX-171-C 0.0599997 μM): 106%
- remaining activity at 0.0799994 µM (MmBRISC; FX-171-C 0.0799994 μM): 102%
- remaining activity at 0.119998 µM (MmBRISC; FX-171-C 0.119998 μM): 107%
- remaining activity at 0.199996 µM (MmBRISC; FX-171-C 0.199996 μM): 106%
- remaining activity at 0.499975 µM (MmBRISC; FX-171-C 0.499975 μM): 94.9%
- remaining activity at 0.799937 µM (MmBRISC; FX-171-C 0.799937 μM): 98%
- remaining activity at 1.25984 µM (MmBRISC; FX-171-C 1.25984 μM): 89.8%
- remaining activity at 1.9996 µM (MmBRISC; FX-171-C 1.9996 μM): 97.6%
- remaining activity at 3.159 µM (MmBRISC; FX-171-C 3.159 μM): 92.5%
- remaining activity at 5.19739 µM (MmBRISC; FX-171-C 5.19739 μM): 87.1%
- remaining activity at 7.99364 µM (MmBRISC; FX-171-C 7.99364 μM): 68.2%
- remaining activity at 12.7839 µM (MmBRISC; FX-171-C 12.7839 μM): 57.7%
- remaining activity at 19.96 µM (MmBRISC; FX-171-C 19.96 μM): 43.1%
- remaining activity at 31.4999 µM (MmBRISC; FX-171-C 31.4999 μM): 34%
- remaining activity at 50.147 µM (MmBRISC; FX-171-C 50.147 μM): 24.4%
- remaining activity at 79.7601 µM (MmBRISC; FX-171-C 79.7601 μM): 22.6%
- remaining activity at 125.99 µM (MmBRISC; FX-171-C 125.99 μM): 12%
- Dimer fraction (HsBRISCΔLoop; [FX-171-C (μM)] 20): 0
- Dimer fraction (HsBRISCΔLoop; [FX-171-C (μM)] 40): 0
- Dimer fraction (HsBRISCΔLoop; [FX-171-C (μM)] 80): 0
- Dimer fraction (HsBRISCΔLoop; [FX-171-C (μM)] 156): 0
- Dimer fraction (HsBRISCΔLoop; [FX-171-C (μM)] 312.5): 0
- Dimer fraction (HsBRISCΔLoop; [FX-171-C (μM)] 2500): 0.11 and 0.07
- Dimer fraction (HsBRISCΔLoop; [FX-171-C (μM)] 5000): 0.16 and 0.15 and 0.14
- Dimer fraction (HsBRISCΔLoop; [FX-171-C (μM)] 10000): 0.23 and 0.22 and 0.14
- dimer formation of human BRISCΔLoop on inhibitor addition (HsBRISCΔLoop; mass photometry and negative-stain EM): fewer dimers
- IC50 (BRISC BRCC45 R137A): > 100 µM
- inhibitor sensitivity vs BRISC WT (BRISC BRCC45 R137A): reduced sensitivity to inhibition
- remaining activity at 12.5 µM (BRISC BRCC45 R137A; [8]): 87.5%
- remaining activity at 25 µM (BRISC BRCC45 R137A; FX-171-C 25 μM, read-out: Normalised V0): 80.1%
Structure (SMILES): O=C(NC1C2CNCC21)c1nn(C(=O)c2c(Cl)cccc2Cl)cc1NC(=O)c1c(Cl)cccc1Cl (stereo not shown) [FX-171-C]
- inhibition of ant BRISC (CfBRISCΔNΔC): no inhibition
- Normalised V0 (CfBRISCΔNΔC; FX-171-C 0.013 μM): 0.8962 and 0.9603 and 0.9451 and 1.01 and 0.9065 and 0.9614
- Normalised V0 (CfBRISCΔNΔC; FX-171-C 0.02 μM): 0.8823 and 0.9398 and 0.9125
- Normalised V0 (CfBRISCΔNΔC; FX-171-C 0.0399999 μM): 0.8374 and 1.085 and 0.922
- Normalised V0 (CfBRISCΔNΔC; FX-171-C 0.0599997 μM): 0.96 and 0.9545 and 0.8432
- Normalised V0 (CfBRISCΔNΔC; FX-171-C 0.0799994 μM): 0.96 and 1.021 and 0.8317
- Normalised V0 (CfBRISCΔNΔC; FX-171-C 0.119998 μM): 0.912 and 0.9545 and 0.6902
- Normalised V0 (CfBRISCΔNΔC; FX-171-C 0.199996 μM): 0.9393 and 1.029 and 0.809
- Normalised V0 (CfBRISCΔNΔC; FX-171-C 0.499975 μM): 0.8932 and 0.9706 and 1.16
- Normalised V0 (CfBRISCΔNΔC; FX-171-C 0.799937 μM): 0.8483 and 0.9187 and 0.8448
- Normalised V0 (CfBRISCΔNΔC; FX-171-C 1.25984 μM): 0.9211 and 1.122 and 1.015
- Normalised V0 (CfBRISCΔNΔC; FX-171-C 1.9996 μM): 0.9132 and 0.9123 and 0.84
- Normalised V0 (CfBRISCΔNΔC; FX-171-C 3.159 μM): 0.9417 and 1.133 and 0.9365
- Normalised V0 (CfBRISCΔNΔC; FX-171-C 5.19739 μM): 0.9697 and 1.085 and 0.6282
- Normalised V0 (CfBRISCΔNΔC; FX-171-C 7.99364 μM): 0.932 and 1.064 and 1.2693
- Normalised V0 (CfBRISCΔNΔC; FX-171-C 12.7839 μM): 1.03 and 1.045 and 0.7909
- Normalised V0 (CfBRISCΔNΔC; FX-171-C 19.96 μM): 1.048 and 1.129 and 1.039
- Normalised V0 (CfBRISCΔNΔC; FX-171-C 31.4999 μM): 0.9199 and 1.137 and 0.9151
- Normalised V0 (CfBRISCΔNΔC; FX-171-C 50.147 μM): 0.8823 and 1.1 and 0.9082
- Normalised V0 (CfBRISCΔNΔC; FX-171-C 79.7601 μM): 0.9478 and 0.9802 and 1.294
- Normalised V0 (CfBRISCΔNΔC; FX-171-C 125.99 μM): 0.8064 and 1.008 and 0.9331
- Normalised V0 (CfBRISCΔNΔC; FX-171-C 199.922 μM): 1.048 and 0.9667 and 0.9357
